Data as given in PMC6332596 (Journal of Hematology & Oncology, 2019).
Where two headings read alike, the source gives them in different places.

[1] = Grade 1, worst grade per patient in all cycles, N = 18
[2] = Grade 2, worst grade per patient in all cycles, N = 18
[3] = Grade 3, worst grade per patient in all cycles, N = 18
[4] = Grade 4, worst grade per patient in all cycles, N = 18
[5] = Grade 5, worst grade per patient in all cycles, N = 18

Protocol: Patients were enrolled sequentially into dose escalation cohorts using a standard 3 + 3 design, except that only two patients were enrolled at the starting dose. Intra-patient dose escalation was not permitted.
If one of the first three patients at a dose level experienced DLT, up to three additional patients (total up to six patients) were enrolled at that dose level. If more than two patients at a dose level experienced DLT, dose escalation was halted, and the dose level was determined to have exceeded MTD. Three additional patients were then entered on the next lower dose level. MTD was defined as the highest dose with an observed incidence of DLT in no more than one of six patients.
Toxicity was graded according to Common Terminology Criteria for Adverse Events (CTCAE) version 4.0.
Safety assessments included the reporting of all adverse events (AEs), changes in clinical laboratory parameters (hematology, serum chemistries, coagulation, urinalysis), vital sign measurements, 12-lead electrocardiogram (ECG) results, and physical examination findings. In addition, serial measurements of left ventricular ejection fraction, thyroid function, myocardial enzymes, troponin, amylase, and lipase were performed. Twenty-four-hour urine protein was implemented if clinically indicated.
Safety parameters were assessed at baseline and at regular intervals during the study. Adverse events (AEs) were classified/graded weekly according to the CTCAE version 4.0.

COc1ccc2c(Oc3ccc4c(C(=O)Nc5ccccc5N)cccc4c3)ccnc2c1 [chiauranib]
patients with DLT (grade 3 hypertension) (65 mg/day cohort (n = 4), cycle 1): two | serious adverse events (SAE) reported (20-mg dose level, death from pulmonary infection, assessed unlikely related): one | Treatment-related adverse event: ALT increased [1]: 2 (11.1) n (%) | Treatment-related adverse event: AST increased [1]: 3 (16.7) n (%) | Treatment-related adverse event: Abdominal pain [1]: 2 (11.1) n (%) | Treatment-related adverse event: Amylase increased [1]: 3 (16.7) n (%) | Treatment-related adverse event: Blood urea increased [1]: 2 (11.1) n (%) | Treatment-related adverse event: Conjugated bilirubin increased [1]: 5 (27.8) n (%) | Treatment-related adverse event: Decreased appetite [1]: 0 n (%) | Treatment-related adverse event: Diarrhea [1]: 2 (11.1) n (%) | Treatment-related adverse event: Dysphonia [1]: 2 (11.1) n (%) | Treatment-related adverse event: Fatigue [1]: 7 (38.9) n (%) | Treatment-related adverse event: Hematuria [1]: 7 (38.9) n (%) | Treatment-related adverse event: Hyperbilirubinemia [1]: 2 (11.1) n (%) | Treatment-related adverse event: Hypertension [1]: 3 (16.7) n (%) | Treatment-related adverse event: Hypertriglyceridemia [1]: 5 (27.8) n (%) | Treatment-related adverse event: Hypothyroidism [1]: 7 (38.9) n (%) | Treatment-related adverse event: Leucopenia [1]: 2 (11.1) n (%) | Treatment-related adverse event: Mouth ulceration [1]: 1 (5.6) n (%) | Treatment-related adverse event: Nausea [1]: 4 (22.2) n (%) | Treatment-related adverse event: Neutropenia [1]: 2 (11.1) n (%) | Treatment-related adverse event: Palmar-plantar erythrodysesthesia syndrome [1]: 1 (5.6) n (%) | Treatment-related adverse event: Proteinuria [1]: 8 (44.4) n (%) | Treatment-related adverse event: Rash [1]: 1 (5.6) n (%) | Treatment-related adverse event: Thrombocytopenia [1]: 2 (11.1) n (%) | Treatment-related adverse event: Unconjugated bilirubin increased [1]: 2 (11.1) n (%) | Treatment-related adverse event: Vaginal hemorrhage [1]: 2 (11.1) n (%) | Treatment-related adverse event: ALT increased [2]: 0 n (%) | Treatment-related adverse event: AST increased [2]: 0 n (%) | Treatment-related adverse event: Abdominal pain [2]: 0 n (%) | Treatment-related adverse event: Amylase increased [2]: 1 (5.6) n (%) | Treatment-related adverse event: Blood urea increased [2]: 0 n (%) | Treatment-related adverse event: Conjugated bilirubin increased [2]: 0 n (%) | Treatment-related adverse event: Decreased appetite [2]: 2 (11.1) n (%) | Treatment-related adverse event: Diarrhea [2]: 1 (5.6) n (%) | Treatment-related adverse event: Dysphonia [2]: 0 n (%) | Treatment-related adverse event: Fatigue [2]: 4 (22.2) n (%) | Treatment-related adverse event: Hematuria [2]: 0 n (%) | Treatment-related adverse event: Hyperbilirubinemia [2]: 0 n (%) | Treatment-related adverse event: Hypertension [2]: 1 (5.6) n (%) | Treatment-related adverse event: Hypertriglyceridemia [2]: 1 (5.6) n (%) | Treatment-related adverse event: Hypothyroidism [2]: 0 n (%) | Treatment-related adverse event: Leucopenia [2]: 1 (5.6) n (%) | Treatment-related adverse event: Mouth ulceration [2]: 1 (5.6) n (%) | Treatment-related adverse event: Nausea [2]: 0 n (%) | Treatment-related adverse event: Neutropenia [2]: 0 n (%) | Treatment-related adverse event: Palmar-plantar erythrodysesthesia syndrome [2]: 1 (5.6) n (%) | Treatment-related adverse event: Proteinuria [2]: 0 n (%) | Treatment-related adverse event: Rash [2]: 1 (5.6) n (%) | Treatment-related adverse event: Thrombocytopenia [2]: 0 n (%) | Treatment-related adverse event: Unconjugated bilirubin increased [2]: 0 n (%) | Treatment-related adverse event: Vaginal hemorrhage [2]: 0 n (%) | Treatment-related adverse event: ALT increased [3]: 0 n (%) | Treatment-related adverse event: AST increased [3]: 0 n (%) | Treatment-related adverse event: Abdominal pain [3]: 0 n (%) | Treatment-related adverse event: Amylase increased [3]: 0 n (%) | Treatment-related adverse event: Blood urea increased [3]: 0 n (%) | Treatment-related adverse event: Conjugated bilirubin increased [3]: 0 n (%) | Treatment-related adverse event: Decreased appetite [3]: 0 n (%) | Treatment-related adverse event: Diarrhea [3]: 0 n (%) | Treatment-related adverse event: Dysphonia [3]: 0 n (%) | Treatment-related adverse event: Fatigue [3]: 0 n (%) | Treatment-related adverse event: Hematuria [3]: 0 n (%) | Treatment-related adverse event: Hyperbilirubinemia [3]: 0 n (%) | Treatment-related adverse event: Hypertension [3]: 2 (11.1) n (%) | Treatment-related adverse event: Hypertriglyceridemia [3]: 0 n (%) | Treatment-related adverse event: Hypothyroidism [3]: 0 n (%) | Treatment-related adverse event: Leucopenia [3]: 0 n (%) | Treatment-related adverse event: Mouth ulceration [3]: 0 n (%) | Treatment-related adverse event: Nausea [3]: 0 n (%) | Treatment-related adverse event: Neutropenia [3]: 2 (11.1) n (%) | Treatment-related adverse event: Palmar-plantar erythrodysesthesia syndrome [3]: 0 n (%) | Treatment-related adverse event: Proteinuria [3]: 0 n (%) | Treatment-related adverse event: Rash [3]: 0 n (%) | Treatment-related adverse event: Thrombocytopenia [3]: 0 n (%) | Treatment-related adverse event: Unconjugated bilirubin increased [3]: 0 n (%) | Treatment-related adverse event: Vaginal hemorrhage [3]: 0 n (%) | Treatment-related adverse event: ALT increased [4]: 0 n (%) | Treatment-related adverse event: AST increased [4]: 0 n (%) | Treatment-related adverse event: Abdominal pain [4]: 0 n (%) | Treatment-related adverse event: Amylase increased [4]: 0 n (%) | Treatment-related adverse event: Blood urea increased [4]: 0 n (%) | Treatment-related adverse event: Conjugated bilirubin increased [4]: 0 n (%) | Treatment-related adverse event: Decreased appetite [4]: 0 n (%) | Treatment-related adverse event: Diarrhea [4]: 0 n (%) | Treatment-related adverse event: Dysphonia [4]: 0 n (%) | Treatment-related adverse event: Fatigue [4]: 0 n (%) | Treatment-related adverse event: Hematuria [4]: 0 n (%) | Treatment-related adverse event: Hyperbilirubinemia [4]: 0 n (%) | Treatment-related adverse event: Hypertension [4]: 0 n (%) | Treatment-related adverse event: Hypertriglyceridemia [4]: 0 n (%) | Treatment-related adverse event: Hypothyroidism [4]: 0 n (%) | Treatment-related adverse event: Leucopenia [4]: 0 n (%) | Treatment-related adverse event: Mouth ulceration [4]: 0 n (%) | Treatment-related adverse event: Nausea [4]: 0 n (%) | Treatment-related adverse event: Neutropenia [4]: 0 n (%) | Treatment-related adverse event: Palmar-plantar erythrodysesthesia syndrome [4]: 0 n (%) | Treatment-related adverse event: Proteinuria [4]: 0 n (%) | Treatment-related adverse event: Rash [4]: 0 n (%) | Treatment-related adverse event: Thrombocytopenia [4]: 0 n (%) | Treatment-related adverse event: Unconjugated bilirubin increased [4]: 0 n (%) | Treatment-related adverse event: Vaginal hemorrhage [4]: 0 n (%) | Treatment-related adverse event: ALT increased [5]: 0 n (%) | Treatment-related adverse event: AST increased [5]: 0 n (%) | Treatment-related adverse event: Abdominal pain [5]: 0 n (%) | Treatment-related adverse event: Amylase increased [5]: 0 n (%) | Treatment-related adverse event: Blood urea increased [5]: 0 n (%) | Treatment-related adverse event: Conjugated bilirubin increased [5]: 0 n (%) | Treatment-related adverse event: Decreased appetite [5]: 0 n (%) | Treatment-related adverse event: Diarrhea [5]: 0 n (%) | Treatment-related adverse event: Dysphonia [5]: 0 n (%) | Treatment-related adverse event: Fatigue [5]: 0 n (%) | Treatment-related adverse event: Hematuria [5]: 0 n (%) | Treatment-related adverse event: Hyperbilirubinemia [5]: 0 n (%) | Treatment-related adverse event: Hypertension [5]: 0 n (%) | Treatment-related adverse event: Hypertriglyceridemia [5]: 0 n (%) | Treatment-related adverse event: Hypothyroidism [5]: 0 n (%) | Treatment-related adverse event: Leucopenia [5]: 0 n (%) | Treatment-related adverse event: Mouth ulceration [5]: 0 n (%) | Treatment-related adverse event: Nausea [5]: 0 n (%) | Treatment-related adverse event: Neutropenia [5]: 0 n (%) | Treatment-related adverse event: Palmar-plantar erythrodysesthesia syndrome [5]: 0 n (%) | Treatment-related adverse event: Proteinuria [5]: 0 n (%) | Treatment-related adverse event: Rash [5]: 0 n (%) | Treatment-related adverse event: Thrombocytopenia [5]: 0 n (%) | Treatment-related adverse event: Unconjugated bilirubin increased [5]: 0 n (%) | Treatment-related adverse event: Vaginal hemorrhage [5]: 0 n (%) | treatment-related AE exceeding grade 3 (N = 18): No treatment-related AE exceeded grade 3 was observed | treatment-related deaths (N = 18): No treatment-related deaths occurred | treatment-related fatigue, irrespective of grade (N = 18): 61.1% | treatment-related grade 3 hyperglycemia (N = 18): one | treatment-related grade 3 hypertension (N = 18): two | treatment-related grade 3 neutropenia (N = 18): two | treatment-related hematuria, irrespective of grade (N = 18): 38.9% | treatment-related hypertension, irrespective of grade (N = 18): 33.3% | treatment-related hypertriglyceridemia, irrespective of grade (N = 18): 33.3% | treatment-related hypothyroidism, irrespective of grade (N = 18): 38.9% | treatment-related proteinuria, irrespective of grade (N = 18): 44.4% | patients with at least one AE (N = 18, all dose levels): 18 patients | patients with at least one treatment-related AE (N = 18, all dose levels): 94.4% | Treatment-related adverse event: ALT increased (Total, all cycles, N = 18): 2 (11.1) n (%) | Treatment-related adverse event: AST increased (Total, all cycles, N = 18): 3 (16.7) n (%) | Treatment-related adverse event: Abdominal pain (Total, all cycles, N = 18): 2 (11.1) n (%) | Treatment-related adverse event: Amylase increased (Total, all cycles, N = 18): 4 (22.2) n (%) | Treatment-related adverse event: Blood urea increased (Total, all cycles, N = 18): 2 (11.1) n (%) | Treatment-related adverse event: Conjugated bilirubin increased (Total, all cycles, N = 18): 5 (27.8) n (%) | Treatment-related adverse event: Decreased appetite (Total, all cycles, N = 18): 2 (11.1) n (%) | Treatment-related adverse event: Diarrhea (Total, all cycles, N = 18): 3 (16.7) n (%) | Treatment-related adverse event: Dysphonia (Total, all cycles, N = 18): 2 (11.1) n (%) | Treatment-related adverse event: Fatigue (Total, all cycles, N = 18): 11 (61.1) n (%) | Treatment-related adverse event: Hematuria (Total, all cycles, N = 18): 7 (38.9) n (%) | Treatment-related adverse event: Hyperbilirubinemia (Total, all cycles, N = 18): 2 (11.1) n (%) | Treatment-related adverse event: Hypertension (Total, all cycles, N = 18): 6 (33.3) n (%) | Treatment-related adverse event: Hypertriglyceridemia (Total, all cycles, N = 18): 6 (33.3) n (%) | Treatment-related adverse event: Hypothyroidism (Total, all cycles, N = 18): 7 (38.9) n (%) | Treatment-related adverse event: Leucopenia (Total, all cycles, N = 18): 3 (16.7) n (%) | Treatment-related adverse event: Mouth ulceration (Total, all cycles, N = 18): 2 (11.1) n (%) | Treatment-related adverse event: Nausea (Total, all cycles, N = 18): 4 (22.2) n (%) | Treatment-related adverse event: Neutropenia (Total, all cycles, N = 18): 4 (22.2) n (%) | Treatment-related adverse event: Palmar-plantar erythrodysesthesia syndrome (Total, all cycles, N = 18): 2 (11.1) n (%) | Treatment-related adverse event: Proteinuria (Total, all cycles, N = 18): 8 (44.4) n (%) | Treatment-related adverse event: Rash (Total, all cycles, N = 18): 2 (11.1) n (%) | Treatment-related adverse event: Thrombocytopenia (Total, all cycles, N = 18): 2 (11.1) n (%) | Treatment-related adverse event: Unconjugated bilirubin increased (Total, all cycles, N = 18): 2 (11.1) n (%) | Treatment-related adverse event: Vaginal hemorrhage (Total, all cycles, N = 18): 2 (11.1) n (%) | MTD (administered orally once daily): 50 mg | recommended phase II dose (RP2D) (administered orally once daily, monotherapy): 50 mg | maximum tolerated dose (MTD) (patients, oral once daily, 28-day cycles): 50 mg/day
